Reference: US11453669B2, “Polycyclic pyridone derivative” (Shionogi & Co., Ltd., priority 2018, dated 2022)

Test system: HIV
Test: Anti-HIV activity (MT-4 cells, MTT)
Format: cell-based
Conditions: Human immunodeficiency virus 1, MT4, 96 h, read-out: EC50_nM (50% HIV inhibitory concentration)
Procedure: Serial dilutions of a test sample were prepared in a 96-well microplate (50 μL/well). 2.5×10^5 cells/mL of an MT-4 cell suspension was dispensed at 100 μL/well to the plate containing the test sample. Then, an HIV virus solution was dispensed at 50 μL/well. The plate was mixed with a plate mixer and cultured for 4 days in a CO2 incubator. An MTT (3-(4,5-dimethylthiazol-2-yl)-2,5-diphenyltetrazolium bromide) solution was dispensed at 30 μL/well. The plate was reacted for 1 hour in a CO2 incubator. 150 μL of the supernatant was removed from each well so as not to take up the cells. 150 μL of a cell lysis solution was added to each well and well mixed with a plate mixer until the cells were completely lysed. The absorbance of the mixed plate was measured at two wavelengths of 560 nm and 690 nm using a microplate reader.

| SMILES | EC50 |
| --- | --- |
| CCN1C(=O)c2c(O)c(=O)c(-c3nnc(Cc4cc(F)c(F)cc4F)s3)cn2N2CCCC[C@@H]12 [Compound I-012] | 4.8 nM |
| CN1C(=O)c2c(O)c(=O)c(-c3nnc(Cc4ccc(F)cc4F)s3)cn2N2CCCC[C@@H]12 [II-003] | 0.62 nM |
| CN1C(=O)c2c(O)c(=O)c(-c3nnc(Cc4ccc(F)cc4F)s3)cn2N2CCOC[C@@H]12 [II-010] | 1.3 nM |
| CCN1C(=O)c2c(O)c(=O)c(-c3nnc(Cc4c(F)cc(F)cc4F)s3)cn2N2CCOC[C@@H]12 [II-018] | 0.52 nM |
| CCN1C(=O)c2c(O)c(=O)c(-c3nnc(Cc4c(F)cc(F)cc4F)s3)cn2N2C[C@@H](C)C[C@@H]12 [II-027] | 1.9 nM |
| C[C@@H]1CC[C@H]2N(C)C(=O)c3c(O)c(=O)c(-c4nnc(Cc5ccc(F)cc5F)s4)cn3N12 [II-029] | 0.66 nM |
| CCN1C(=O)c2c(O)c(=O)c(-c3nnc(Cc4ccc(F)cc4)s3)cn2N2[C@H](COC)CC[C@@H]12 [II-038] | 0.13 nM |
| C[C@@H]1CCC[C@H]2N(C)C(=O)c3c(O)c(=O)c(-c4nnc(Cc5ccc(F)cc5F)s4)cn3N12 [II-043] | 3.5 nM |
| CCN1C(=O)c2c(O)c(=O)c(-c3nnc(Cc4c(F)cc(F)cc4F)s3)cn2N2[C@H](C)CCC[C@@H]12 [II-044] | 1.4 nM |
| CCN1C(=O)c2c(O)c(=O)c(-c3nnc(Cc4c(F)cc(F)cc4F)s3)cn2N2C[C@@H]3CC[C@@H](O3)[C@@H]12 [II-046] | 0.6 nM |
| CCN1C(=O)c2c(O)c(=O)c(-c3nnc(Cc4ccc(F)cc4)s3)cn2N2C[C@@H]3CC[C@@H](O3)[C@@H]12 [II-050] | 0.66 nM |

Test system: HIV mutant strain 1 (E138K/G140S/Q148H/N155H)
Test: not given
Format: cell-based
Conditions: FC=EC50 of the mutant strain/EC50 of the wild strain, HeLa-CD4 cells
Procedure: (§1) Serial dilutions of a test sample were prepared in a 96-well microplate (50 μL/well). 2.5×10^5 cells/mL of a HeLa-CD4 cell suspension was dispensed at 100 μL/well to the plate containing the test sample. Then, an HIV virus solution (wild strain and mutant strain) was dispensed at 50 μL/well. The plate was mixed with a plate mixer and cultured for 3 days in a CO2 incubator. The culture supernatant in each well was removed by suction. A cell lysis buffer in a reporter assay kit was dispensed at 100 μL/well, and the plate was frozen in a freezer (−80° C.). The plate frozen in a freezer was thawed at room temperature, then mixed with a plate mixer, and centrifuged at 1,200 rpm for 5 minutes. The supernatant of each well was dispensed at 20 μL/well to a 96-well microplate (BLACK). A chemiluminescent in the reporter assay kit reagent was dispensed at 100 μL/well and reacted at room temperature for approximately 1 hour. Then, luminescence intensity was measured using MicroBeta TRILUX.

| SMILES | FC (fold change) for mutant strain 1 |
| --- | --- |
| CCN1C(=O)c2c(O)c(=O)c(-c3nnc(Cc4cc(F)c(F)cc4F)s3)cn2N2CCCC[C@@H]12 [Compound I-012] | 23 |
| CN1C(=O)c2c(O)c(=O)c(-c3nnc(Cc4ccc(F)cc4F)s3)cn2N2CCCC[C@@H]12 [II-003] | 8.8 |
| CN1C(=O)c2c(O)c(=O)c(-c3nnc(Cc4ccc(F)cc4F)s3)cn2N2CCOC[C@@H]12 [II-010] | 25 |
| CCN1C(=O)c2c(O)c(=O)c(-c3nnc(Cc4c(F)cc(F)cc4F)s3)cn2N2CCOC[C@@H]12 [II-018] | 15 |
| CCN1C(=O)c2c(O)c(=O)c(-c3nnc(Cc4c(F)cc(F)cc4F)s3)cn2N2C[C@@H](C)C[C@@H]12 [II-027] | 4.7 |
| C[C@@H]1CC[C@H]2N(C)C(=O)c3c(O)c(=O)c(-c4nnc(Cc5ccc(F)cc5F)s4)cn3N12 [II-029] | 7.2 |
| CCN1C(=O)c2c(O)c(=O)c(-c3nnc(Cc4ccc(F)cc4)s3)cn2N2[C@H](COC)CC[C@@H]12 [II-038] | 20 |
| C[C@@H]1CCC[C@H]2N(C)C(=O)c3c(O)c(=O)c(-c4nnc(Cc5ccc(F)cc5F)s4)cn3N12 [II-043] | 6.8 |
| CCN1C(=O)c2c(O)c(=O)c(-c3nnc(Cc4c(F)cc(F)cc4F)s3)cn2N2[C@H](C)CCC[C@@H]12 [II-044] | 11 |
| CCN1C(=O)c2c(O)c(=O)c(-c3nnc(Cc4c(F)cc(F)cc4F)s3)cn2N2C[C@@H]3CC[C@@H](O3)[C@@H]12 [II-046] | 17 |
| CCN1C(=O)c2c(O)c(=O)c(-c3nnc(Cc4ccc(F)cc4)s3)cn2N2C[C@@H]3CC[C@@H](O3)[C@@H]12 [II-050] | 20 |

Test system: HIV mutant strain 2 (E92Q/E138T/G140S/Q148H)
Test: not given
Format: cell-based
Conditions: FC=EC50 of the mutant strain/EC50 of the wild strain, HeLa-CD4 cells
Procedure: as §1

| SMILES | FC (fold change) for mutant strain 2 |
| --- | --- |
| CCN1C(=O)c2c(O)c(=O)c(-c3nnc(Cc4cc(F)c(F)cc4F)s3)cn2N2CCCC[C@@H]12 [Compound I-012] | 46 |
| CN1C(=O)c2c(O)c(=O)c(-c3nnc(Cc4ccc(F)cc4F)s3)cn2N2CCCC[C@@H]12 [II-003] | 12 |
| CN1C(=O)c2c(O)c(=O)c(-c3nnc(Cc4ccc(F)cc4F)s3)cn2N2CCOC[C@@H]12 [II-010] | 22 |
| CCN1C(=O)c2c(O)c(=O)c(-c3nnc(Cc4c(F)cc(F)cc4F)s3)cn2N2CCOC[C@@H]12 [II-018] | 20 |
| CCN1C(=O)c2c(O)c(=O)c(-c3nnc(Cc4c(F)cc(F)cc4F)s3)cn2N2C[C@@H](C)C[C@@H]12 [II-027] | 7 |
| C[C@@H]1CC[C@H]2N(C)C(=O)c3c(O)c(=O)c(-c4nnc(Cc5ccc(F)cc5F)s4)cn3N12 [II-029] | 6.5 |
| CCN1C(=O)c2c(O)c(=O)c(-c3nnc(Cc4ccc(F)cc4)s3)cn2N2[C@H](COC)CC[C@@H]12 [II-038] | 31 |
| C[C@@H]1CCC[C@H]2N(C)C(=O)c3c(O)c(=O)c(-c4nnc(Cc5ccc(F)cc5F)s4)cn3N12 [II-043] | 11 |
| CCN1C(=O)c2c(O)c(=O)c(-c3nnc(Cc4c(F)cc(F)cc4F)s3)cn2N2[C@H](C)CCC[C@@H]12 [II-044] | 26 |
| CCN1C(=O)c2c(O)c(=O)c(-c3nnc(Cc4c(F)cc(F)cc4F)s3)cn2N2C[C@@H]3CC[C@@H](O3)[C@@H]12 [II-046] | 20 |
| CCN1C(=O)c2c(O)c(=O)c(-c3nnc(Cc4ccc(F)cc4)s3)cn2N2C[C@@H]3CC[C@@H](O3)[C@@H]12 [II-050] | 29 |

Test system: not given
Test: not given
Format: in vitro ADME
Conditions: human, 30 min, 0.5 μmol/L, pH 7.4
Procedure: Using commercially available pooled human liver microsomes, a compound of the present invention was reacted for a constant time, and a remaining rate was calculated by comparing a reacted sample and an unreacted sample, thereby, a degree at which the compound of the present invention was metabolized in liver was assessed.
A reaction was performed (oxidative reaction) at 37° C. for 0 minute or 30 minutes in the presence of 1 mmol/L NADPH in 0.2 mL of a buffer solution (50 mmol/L Tris-HCl pH 7.4, 150 mmol/L potassium chloride, 10 mmol/L magnesium chloride) containing 0.5 mg protein/mL of human liver microsomes. After the reaction, 50 μL of the reaction solution was added to 100 μL of a solution of methanol/acetonitrile=1/1 (v/v), and the mixture was mixed and centrifuged at 3000 rpm for 15 minutes. The compound of the present invention in the centrifugation supernatant was quantified by LC/MS/MS or solid-phase extraction (SPE)/MS. The amount of the compound of the present invention remaining after the reaction was calculated with the amount of the compound at 0 minutes of the reaction defined as 100%.

| SMILES | residual rate |
| --- | --- |
| CCN1C(=O)c2c(O)c(=O)c(-c3nnc(Cc4cc(F)c(F)cc4F)s3)cn2N2CCCC[C@@H]12 [Compound I-012] | 72.2 |
| CN1C(=O)c2c(O)c(=O)c(-c3nnc(Cc4ccc(F)cc4F)s3)cn2N2CCCC[C@@H]12 [II-003] | 109 |
| CN1C(=O)c2c(O)c(=O)c(-c3nnc(Cc4ccc(F)cc4F)s3)cn2N2CCOC[C@@H]12 [II-010] | 106 |
| CCN1C(=O)c2c(O)c(=O)c(-c3nnc(Cc4c(F)cc(F)cc4F)s3)cn2N2CCOC[C@@H]12 [II-018] | 95.3 |
| CCN1C(=O)c2c(O)c(=O)c(-c3nnc(Cc4c(F)cc(F)cc4F)s3)cn2N2C[C@@H](C)C[C@@H]12 [II-027] | 90.5 |
| C[C@@H]1CC[C@H]2N(C)C(=O)c3c(O)c(=O)c(-c4nnc(Cc5ccc(F)cc5F)s4)cn3N12 [II-029] | 85.3 |
| CCN1C(=O)c2c(O)c(=O)c(-c3nnc(Cc4ccc(F)cc4)s3)cn2N2[C@H](COC)CC[C@@H]12 [II-038] | 92.4 |
| C[C@@H]1CCC[C@H]2N(C)C(=O)c3c(O)c(=O)c(-c4nnc(Cc5ccc(F)cc5F)s4)cn3N12 [II-043] | 103 |
| CCN1C(=O)c2c(O)c(=O)c(-c3nnc(Cc4c(F)cc(F)cc4F)s3)cn2N2[C@H](C)CCC[C@@H]12 [II-044] | 88.5 |
| CCN1C(=O)c2c(O)c(=O)c(-c3nnc(Cc4c(F)cc(F)cc4F)s3)cn2N2C[C@@H]3CC[C@@H](O3)[C@@H]12 [II-046] | 97.2 |
| CCN1C(=O)c2c(O)c(=O)c(-c3nnc(Cc4ccc(F)cc4)s3)cn2N2C[C@@H]3CC[C@@H](O3)[C@@H]12 [II-050] | 103 |

Biological target: T1, Voltage gated sodium channel (Nav1.5 channel) encoded by SCN5A gene (Homo sapiens, UniProt Q14524)
T1 construct: expressed in transfected cells; host or cells: HEK cells
T1 sequence (Q14524 whole entry): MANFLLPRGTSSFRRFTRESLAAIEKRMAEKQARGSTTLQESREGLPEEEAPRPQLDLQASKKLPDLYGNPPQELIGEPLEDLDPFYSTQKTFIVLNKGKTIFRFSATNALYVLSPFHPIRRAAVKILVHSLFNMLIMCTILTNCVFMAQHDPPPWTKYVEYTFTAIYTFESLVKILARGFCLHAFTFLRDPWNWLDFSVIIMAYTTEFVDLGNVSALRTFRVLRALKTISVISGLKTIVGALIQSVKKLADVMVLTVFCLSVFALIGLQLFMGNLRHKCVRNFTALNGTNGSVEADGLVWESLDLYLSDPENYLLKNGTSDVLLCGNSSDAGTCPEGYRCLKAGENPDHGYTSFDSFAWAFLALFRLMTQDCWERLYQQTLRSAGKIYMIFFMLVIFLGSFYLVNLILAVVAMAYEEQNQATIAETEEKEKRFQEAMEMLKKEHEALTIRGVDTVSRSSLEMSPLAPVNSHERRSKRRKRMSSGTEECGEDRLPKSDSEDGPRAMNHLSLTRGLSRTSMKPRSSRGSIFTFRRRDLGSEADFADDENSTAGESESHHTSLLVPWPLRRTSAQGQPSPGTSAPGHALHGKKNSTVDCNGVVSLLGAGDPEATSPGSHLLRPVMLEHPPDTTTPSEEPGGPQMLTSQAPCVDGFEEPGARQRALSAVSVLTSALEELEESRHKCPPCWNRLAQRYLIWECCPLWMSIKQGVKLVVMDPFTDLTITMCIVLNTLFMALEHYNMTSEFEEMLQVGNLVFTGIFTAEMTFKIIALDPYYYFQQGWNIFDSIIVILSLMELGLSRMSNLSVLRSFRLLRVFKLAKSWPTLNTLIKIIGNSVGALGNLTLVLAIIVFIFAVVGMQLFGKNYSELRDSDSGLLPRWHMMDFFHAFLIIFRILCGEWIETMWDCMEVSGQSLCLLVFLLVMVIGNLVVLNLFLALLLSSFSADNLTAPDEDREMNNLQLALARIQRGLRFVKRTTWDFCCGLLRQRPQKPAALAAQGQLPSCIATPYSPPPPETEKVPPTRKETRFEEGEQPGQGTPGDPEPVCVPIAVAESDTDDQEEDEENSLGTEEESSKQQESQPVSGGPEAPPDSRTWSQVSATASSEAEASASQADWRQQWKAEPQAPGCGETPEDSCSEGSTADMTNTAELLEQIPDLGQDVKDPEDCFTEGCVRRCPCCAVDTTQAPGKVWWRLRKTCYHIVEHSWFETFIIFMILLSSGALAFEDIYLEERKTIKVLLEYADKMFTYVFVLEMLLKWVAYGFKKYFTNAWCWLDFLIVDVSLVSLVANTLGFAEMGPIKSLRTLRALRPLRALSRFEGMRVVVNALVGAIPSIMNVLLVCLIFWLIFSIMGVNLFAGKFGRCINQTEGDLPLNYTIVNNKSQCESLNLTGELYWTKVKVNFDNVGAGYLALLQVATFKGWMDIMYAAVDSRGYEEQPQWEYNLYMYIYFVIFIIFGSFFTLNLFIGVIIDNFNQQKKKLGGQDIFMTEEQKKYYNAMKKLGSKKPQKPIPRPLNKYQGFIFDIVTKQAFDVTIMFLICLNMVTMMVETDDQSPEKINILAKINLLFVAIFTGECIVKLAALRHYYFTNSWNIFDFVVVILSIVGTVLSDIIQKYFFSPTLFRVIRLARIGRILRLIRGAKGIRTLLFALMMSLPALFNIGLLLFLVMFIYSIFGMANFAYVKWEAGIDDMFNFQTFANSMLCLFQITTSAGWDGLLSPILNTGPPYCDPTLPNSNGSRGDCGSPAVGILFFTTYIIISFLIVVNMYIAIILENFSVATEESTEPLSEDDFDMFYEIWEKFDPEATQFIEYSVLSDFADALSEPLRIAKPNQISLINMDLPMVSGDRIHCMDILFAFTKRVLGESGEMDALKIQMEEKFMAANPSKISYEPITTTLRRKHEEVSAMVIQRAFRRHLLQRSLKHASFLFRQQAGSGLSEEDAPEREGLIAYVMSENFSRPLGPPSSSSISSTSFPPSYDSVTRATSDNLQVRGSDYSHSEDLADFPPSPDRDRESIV
Test: Nav test (QPatch whole cell patch clamp)
Format: cell-based
Conditions: HEK cells expressing Nav1.5, applied 5 minutes or more, room temperature
Procedure: A cell was retained at a membrane potential of −100 mV by whole cell patch clamp method using a fully automated patch clamp system (QPatch; Sophion Bioscience A/S), and INa induced by depolarization pulse stimulation at −10 mV for 20 ms was recorded. […] The extracellular solution in which the medium and the compound of the present invention had been dissolved at each objective concentration was applied to the cell for 5 minutes or more under conditions of room temperature.

| SMILES | ratio of maximum peak current (INa) with compound relative to medium |
| --- | --- |
| CCN1C(=O)c2c(O)c(=O)c(-c3nnc(Cc4cc(F)c(F)cc4F)s3)cn2N2CCCC[C@@H]12 [Compound I-012] | 97.1% |
| CN1C(=O)c2c(O)c(=O)c(-c3nnc(Cc4ccc(F)cc4F)s3)cn2N2CCCC[C@@H]12 [II-003] | 96.7% |
| CCN1C(=O)c2c(O)c(=O)c(-c3nnc(Cc4c(F)cc(F)cc4F)s3)cn2N2CCOC[C@@H]12 [II-018] | 109% |
| CCN1C(=O)c2c(O)c(=O)c(-c3nnc(Cc4ccc(F)cc4)s3)cn2N2[C@H](COC)CC[C@@H]12 [II-038] | 86.2% |
